Each block holds one compound with its values, some of them ahead of it.
Legend:
[1] = Drug metabolism in rat liver microsomes at 10 uM; format: ADME, Microsome; details: read-out: Drug metabolism
[2] = Half life in Sprague-Dawley rat at 1 mg/kg, iv; format: ADME, organism-based; design: dose 1 mg/kg, route intravenous; details: in vivo
[3] = Oral bioavailability in Sprague-Dawley rat at 5 mg/kg; format: ADME, organism-based; details: in vivo
[4] = Volume of distribution at steady state in Sprague-Dawley rat at 1 mg/kg, iv; format: ADME, organism-based; design: dose 1 mg/kg, route intravenous; details: in vivo, read-out: Vdss
[5] = Plasma clearance in Sprague-Dawley rat at 1 mg/kg, iv; format: ADME, organism-based; design: dose 1 mg/kg, route intravenous
[6] = target: Metabotropic glutamate receptor 5 (Homo sapiens, UniProt P41594); experiment: Antagonist activity at mGlu5 receptor; format: functional
Metabotropic glutamate receptor 5, sequence (P41594 whole entry): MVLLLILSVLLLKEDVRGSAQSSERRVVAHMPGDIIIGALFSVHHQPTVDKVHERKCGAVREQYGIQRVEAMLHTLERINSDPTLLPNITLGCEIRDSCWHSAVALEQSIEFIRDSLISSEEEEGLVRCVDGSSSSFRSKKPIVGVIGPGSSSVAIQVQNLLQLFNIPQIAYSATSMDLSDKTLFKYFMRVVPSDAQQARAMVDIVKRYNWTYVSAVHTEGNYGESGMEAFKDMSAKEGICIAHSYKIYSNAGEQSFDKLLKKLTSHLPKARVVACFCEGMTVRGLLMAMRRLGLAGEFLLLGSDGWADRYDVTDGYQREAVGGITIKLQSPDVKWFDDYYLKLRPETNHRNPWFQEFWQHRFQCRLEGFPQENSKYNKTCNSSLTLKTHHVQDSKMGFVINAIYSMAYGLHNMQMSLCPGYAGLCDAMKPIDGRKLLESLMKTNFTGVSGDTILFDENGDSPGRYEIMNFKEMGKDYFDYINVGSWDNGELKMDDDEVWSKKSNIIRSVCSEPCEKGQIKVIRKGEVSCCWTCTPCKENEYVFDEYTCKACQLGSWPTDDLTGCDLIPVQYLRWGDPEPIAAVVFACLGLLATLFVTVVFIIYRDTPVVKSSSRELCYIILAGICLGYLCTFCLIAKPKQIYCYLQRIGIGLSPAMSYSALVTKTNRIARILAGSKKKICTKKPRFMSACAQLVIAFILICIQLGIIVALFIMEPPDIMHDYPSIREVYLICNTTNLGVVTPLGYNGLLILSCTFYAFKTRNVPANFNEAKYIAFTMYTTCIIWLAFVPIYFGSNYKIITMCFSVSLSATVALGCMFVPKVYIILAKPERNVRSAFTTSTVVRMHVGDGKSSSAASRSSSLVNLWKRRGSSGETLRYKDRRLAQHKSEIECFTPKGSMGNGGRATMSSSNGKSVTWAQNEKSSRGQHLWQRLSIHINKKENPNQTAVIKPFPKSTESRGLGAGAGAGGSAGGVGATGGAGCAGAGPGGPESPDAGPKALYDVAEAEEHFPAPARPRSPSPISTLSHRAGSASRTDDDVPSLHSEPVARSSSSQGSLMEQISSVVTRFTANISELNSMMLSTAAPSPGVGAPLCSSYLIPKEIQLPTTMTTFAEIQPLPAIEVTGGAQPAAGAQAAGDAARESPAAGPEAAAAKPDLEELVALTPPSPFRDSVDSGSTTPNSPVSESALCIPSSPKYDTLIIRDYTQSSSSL

[7] = Intrinsic clearance in Wistar rat; format: ADME, organism-based; details: in vivo
[8] = Volume of distribution at steady state in Wistar rat; format: ADME, organism-based; details: in vivo, read-out: Vdss
in vivo [9] = details: Wistar, rat
in vivo [10] = details: Wistar, rat, po
Description: Oral bioavailability in Wistar rat

Description for physchem: Dissociation constant, pKa of the compound

SMILES: CC(C)N1CCC(Oc2ccc3[nH]c(C(=O)N4CCC(F)(F)CC4)cc3c2)CC1
CLint scaled [7]: 18 mL/min/kg
Vd [8]: 6 L/kg
bioavailability (in vivo [10]): 100%

SMILES: C[C@H](C1CC1)n1cc(C#N)nc(Nc2c(Cl)cc(OC(F)F)cc2Cl)c1=O
metabolised at 10 µM [1]: 1%

SMILES: C1CCCNCC1 [AZEPANE]
pKa (physchem): 10.9

SMILES: C1CNC1 [AZETIDINE]
pKa (physchem): 10.7

SMILES: c1cnsc1 [ISOTHIAZOLE]
pKa (physchem): -0.51

SMILES: c1cocn1 [OXAZOLE]
pKa (physchem): 0.8

SMILES: c1cnccn1 [PYRAZINE]
pKa (physchem): 0.4

SMILES: c1cn[nH]c1 [PYRAZOLE]
pKa (physchem): 2.52

SMILES: c1ccnnc1 [PYRIDAZINE]
pKa (physchem): 2.3

More lines, now with the values ahead:

metabolised at 10 µM [1]: 7%
SMILES: Cc1cn([C@H](C)C2CC2)c(=O)c(Nc2c(Cl)cc(OC(F)F)cc2Cl)n1

half-life [2]: 65.4 min
bioavailability [3]: 73.5%
Vd [4]: 0.22 L/kg
clearance [5]: 1.49 mL/min/kg
SMILES: O=C(Nc1nc(-c2ccc(F)c(C(F)(F)F)c2)ns1)c1cnc(N2CCC(C(=O)O)CC2)c(Cl)c1

half-life [2]: 100 min
bioavailability [3]: 73%
Vd [4]: 0.34 L/kg
clearance [5]: 2.79 mL/min/kg
SMILES: O=C(Nc1nc(-c2ccc(F)c(C(F)(F)F)c2)c(F)s1)c1cnc(N2CCC(C(=O)O)CC2)c(Cl)c1

half-life [2]: 80.4 min
bioavailability [3]: 66.8%
Vd [4]: 0.83 L/kg
clearance [5]: 6.89 mL/min/kg
SMILES: O=C(Nc1nc(-c2ccc(F)c(C(F)(F)F)c2)cs1)c1cnc(N2CCC(C(=O)O)CC2)c(Cl)c1

Ki [6]: 111 nM
SMILES: Cc1nc(C(=O)Nc2ccc(O)c(C)n2)c(Nc2cccnc2)s1

Ki [6]: 9 nM
SMILES: Cc1cccc(NC(=O)c2nc(C)sc2Nc2cccnc2)n1

Ki [6]: 67 nM
SMILES: Cc1nc(C(=O)Nc2cccc(CO)n2)c(Nc2cccnc2)s1

Ki [6]: 44 nM
SMILES: Cc1cc(NC(=O)c2nc(C)sc2Nc2cccnc2)ccn1

Ki [6]: 81 nM
SMILES: Cc1cc(NC(=O)c2nc(C)sc2Nc2cncnc2)ccn1

Ki [6]: 13 nM
SMILES: Cc1nc(C(=O)Nc2ccc(F)cn2)c(Nc2cccnc2)s1

Ki [6]: 31 nM
SMILES: Cc1nc(C(=O)Nc2ccc(F)cn2)c(Nc2cncnc2)s1

metabolised at 10 µM [1]: 4%
SMILES: C[C@@H](C1CC1)n1cc(Br)nc(Nc2c(Cl)cc(OC(F)F)cc2Cl)c1=O

CLint scaled [7]: 50 mL/min/kg
Vd [8]: 3.5 L/kg
half-life (in vivo [9]): 66 min
SMILES: CC(C)N1CCC(Oc2ccc3[nH]c(C(=O)N4CCOCC4)cc3c2)CC1

metabolised at 10 µM [1]: 20%
SMILES: C[C@@H](C1CC1)n1cc(Cl)nc(Nc2c(Cl)cc(OC(F)F)cc2Cl)c1=O

Source: ChEMBL document CHEMBL2169779, “Mitigating heterocycle metabolism in drug discovery” (J Med Chem, 2012)
